Measured values published in ChEMBL document CHEMBL4308841, “Synthesis, in vitro antiproliferative activity, and kinase inhibitory effects of pyrazole-containing diarylureas and diarylamides” (Eur J Med Chem, 2018).

How the values were obtained:
SK-MEL-2 [1] = test: Growth inhibition of human SK-MEL-2 cells assessed as cell growth at 10 uM incubated for 48 hrs by sulforhodamine B assay relative to control; type: functional; details: SK-MEL-2, 48 h, read-out: Activity
PC-3 [2] = test: Growth inhibition of human PC3 cells assessed as cell growth at 0.1 uM incubated for 48 hrs by sulforhodamine B assay relative to control; type: functional; details: PC-3, 48 h, read-out: Activity
MDA-MB-231 = test: Growth inhibition of human MDA-MB-231 cells incubated for 48 hrs by sulforhodamine B assay; type: functional, cell-based; details: MDA-MB-231, 48 h
CCRF-CEM = test: Growth inhibition of human CCRF-CEM cells assessed as cell growth at 0.01 uM incubated for 48 hrs by sulforhodamine B assay relative to control; type: functional; details: read-out: Activity
PC-3 [3] = test: Growth inhibition of human PC3 cells assessed as cell growth at 0.01 uM incubated for 48 hrs by sulforhodamine B assay relative to control; type: functional; details: PC-3, 48 h, read-out: Activity
SR = test: Growth inhibition of human SR cells assessed as cell growth at 0.1 uM incubated for 48 hrs by sulforhodamine B assay relative to control; type: functional; details: read-out: Activity
NCI/ADR-RES = test: Growth inhibition of human NCI/ADR-RES cells assessed as cell growth at 0.1 uM incubated for 48 hrs by sulforhodamine B assay relative to control; type: functional; details: read-out: Activity
HCT-15 = test: Growth inhibition of human HCT15 cells assessed as cell growth at 0.01 uM incubated for 48 hrs by sulforhodamine B assay relative to control; type: functional; details: HCT-15, 48 h, read-out: Activity
CAKI-1 = test: Growth inhibition of human Caki1 cells incubated for 48 hrs by sulforhodamine B assay; type: functional, cell-based; details: CAKI-1, 48 h
COLO 205 [4] = test: Growth inhibition of human COLO205 cells assessed as cell growth at 0.01 uM incubated for 48 hrs by sulforhodamine B assay relative to control; type: functional; details: COLO 205, 48 h, read-out: Activity
A549 = test: Growth inhibition of human A549/ATCC cells assessed as cell growth at 0.1 uM incubated for 48 hrs by sulforhodamine B assay relative to control; type: functional; details: A549, 48 h, read-out: Activity
NCI-H322M [5] = test: Growth inhibition of human NCI-H322M cells assessed as cell growth at 100 uM incubated for 48 hrs by sulforhodamine B assay relative to control; type: functional; details: read-out: Activity
OVCAR-4 [6] = test: Growth inhibition of human OVCAR4 cells incubated for 48 hrs by sulforhodamine B assay; type: functional, cell-based; details: OVCAR-4, 48 h
MDA-MB-468 = test: Growth inhibition of human MDA-MB-468 cells incubated for 48 hrs by sulforhodamine B assay; type: functional, cell-based; details: MDA-MB-468, 48 h
NCI-H322M [7] = test: Growth inhibition of human NCI-H322M cells assessed as cell growth at 0.01 uM incubated for 48 hrs by sulforhodamine B assay relative to control; type: functional; details: read-out: Activity
SK-MEL-2 [8] = test: Growth inhibition of human SK-MEL-2 cells assessed as cell growth at 1 uM incubated for 48 hrs by sulforhodamine B assay relative to control; type: functional; details: SK-MEL-2, 48 h, read-out: Activity
NCI-H522 = test: Growth inhibition of human NCI-H522 cells assessed as cell growth at 0.01 uM incubated for 48 hrs by sulforhodamine B assay relative to control; type: functional; details: NCI-H522, 48 h, read-out: Activity
COLO 205 [9] = test: Growth inhibition of human COLO205 cells assessed as cell growth at 0.1 uM incubated for 48 hrs by sulforhodamine B assay relative to control; type: functional; details: COLO 205, 48 h, read-out: Activity
UO-31 = test: Growth inhibition of human UO31 cells assessed as cell growth at 100 uM incubated for 48 hrs by sulforhodamine B assay relative to control; type: functional; details: UO-31, 48 h, read-out: Activity
MDA-MB-435 = test: Growth inhibition of human MDA-MB-435 cells assessed as cell growth at 100 uM incubated for 48 hrs by sulforhodamine B assay relative to control; type: functional; details: MDA-MB-435, 48 h, read-out: Activity
SW-620 = test: Growth inhibition of human SW620 cells incubated for 48 hrs by sulforhodamine B assay; type: functional, cell-based; details: SW-620, 48 h
NCI-H226 = test: Growth inhibition of human NCI-H226 cells assessed as cell growth at 0.1 uM incubated for 48 hrs by sulforhodamine B assay relative to control; type: functional; details: NCI-H226, 48 h, read-out: Activity
Malme-3M = test: Growth inhibition of human MALME-3M cells assessed as cell growth at 1 uM incubated for 48 hrs by sulforhodamine B assay relative to control; type: functional; details: read-out: Activity
T47D = test: Growth inhibition of human T47D cells assessed as cell growth at 1 uM incubated for 48 hrs by sulforhodamine B assay relative to control; type: functional; details: read-out: Activity
NCI-H23 = test: Growth inhibition of human NCI-H23 cells assessed as cell growth at 0.1 uM incubated for 48 hrs by sulforhodamine B assay relative to control; type: functional; details: NCI-H23, 48 h, read-out: Activity
SF-539 = test: Growth inhibition of human SF539 cells assessed as cell growth at 100 uM incubated for 48 hrs by sulforhodamine B assay relative to control; type: functional; details: SF-539, 48 h, read-out: Activity
OVCAR-4 [10] = test: Growth inhibition of human OVCAR4 cells assessed as cell growth at 100 uM incubated for 48 hrs by sulforhodamine B assay relative to control; type: functional; details: OVCAR-4, 48 h, read-out: Activity
SNB-19 = test: Growth inhibition of human SNB19 cells incubated for 48 hrs by sulforhodamine B assay; type: functional, cell-based; details: SNB-19, 48 h
NCI-H460 = test: Growth inhibition of human NCI-H460 cells assessed as cell growth at 100 uM incubated for 48 hrs by sulforhodamine B assay relative to control; type: functional; details: NCI-H460, 48 h, read-out: Activity
SF-295 = test: Growth inhibition of human SF295 cells assessed as cell growth at 0.1 uM incubated for 48 hrs by sulforhodamine B assay relative to control; type: functional; details: SF-295, 48 h, read-out: Activity
[11] = read-out: LC50 (the source's name)
[12] = read-out: pLC50 (the source's name) (converted)

## COc1cc(Cl)cc(-c2nn(-c3cccc(NC(=O)c4ccc(Cl)c(Cl)c4)c3)cc2-c2ccncc2)c1
SK-MEL-2 [1]
  growth at 10 µM: 78.4%

## O=C(Nc1cccc(-n2cc(-c3ccncc3)c(-c3cc(O)cc(Cl)c3)n2)c1)Nc1ccc(Cl)c(Cl)c1
PC-3 [2]
  growth at 0.1 µM: 90%
MDA-MB-231; read-out: GI50
  GI50: 1.01 µM
MDA-MB-231; [11]
  CC50: > 100 µM
MDA-MB-231; read-out: TGI
  TGI: 77 µM
MDA-MB-231; read-out: pGI50 (converted)
  GI50: 1 µM
MDA-MB-231; [12]
  CC50: > 100 µM
MDA-MB-231; read-out: pTGI (converted)
  TGI: 7.76 µM
CCRF-CEM
  growth at 0.01 µM: 96%
PC-3 [3]
  growth at 0.01 µM: 90%
SR
  growth at 0.1 µM: 90%
NCI/ADR-RES
  growth at 0.1 µM: 105%
HCT-15
  growth at 0.01 µM: 59%
CAKI-1; read-out: GI50
  GI50: 2.21 µM
CAKI-1; [11]
  CC50: > 100 µM
CAKI-1; read-out: TGI
  TGI: 70.1 µM
CAKI-1; read-out: pGI50 (converted)
  GI50: 2.19 µM
CAKI-1; [12]
  CC50: > 100 µM
CAKI-1; read-out: pTGI (converted)
  TGI: 7.08 µM
COLO 205 [4]
  growth at 0.01 µM: 106%
A549
  growth at 0.1 µM: 99%
NCI-H322M [5]
  growth at 100 µM: -24%
OVCAR-4 [6]; read-out: GI50
  GI50: 2.9 µM
OVCAR-4 [6]; [11]
  CC50: > 100 µM
OVCAR-4 [6]; read-out: pGI50 (converted)
  GI50: 2.95 µM
OVCAR-4 [6]; [12]
  CC50: > 100 µM
MDA-MB-468
  IC50: 1.71 µM
MDA-MB-468; read-out: GI50
  GI50: 1.7 µM
MDA-MB-468; [11]
  CC50: > 100 µM
MDA-MB-468; read-out: TGI
  TGI: 70.9 µM
MDA-MB-468; read-out: pGI50 (converted)
  GI50: 1.7 µM
MDA-MB-468; [12]
  CC50: > 100 µM
MDA-MB-468; read-out: pTGI (converted)
  TGI: 7.08 µM
NCI-H322M [7]
  growth at 0.01 µM: 52%
SK-MEL-2 [8]
  growth at 1 µM: 56%
NCI-H522
  growth at 0.01 µM: 88%
COLO 205 [9]
  growth at 0.1 µM: 103%
UO-31
  growth at 100 µM: -27%
MDA-MB-435
  growth at 100 µM: -45%
SW-620; read-out: GI50
  GI50: 3.22 µM
SW-620; read-out: LC50
  LC50: > 100 µM
SW-620; read-out: TGI
  TGI: 99.7 µM
SW-620; read-out: pGI50 (converted)
  GI50: 3.24 µM
SW-620; read-out: pLC50 (converted)
  LC50: > 100 µM
SW-620; read-out: pTGI (converted)
  TGI: 10 µM
NCI-H226
  growth at 0.1 µM: 89%
Malme-3M
  growth at 1 µM: 76%
T47D
  growth at 1 µM: 96%
NCI-H23
  growth at 0.1 µM: 97%
SF-539
  growth at 100 µM: -52%
OVCAR-4 [10]
  growth at 100 µM: 9%
SNB-19; read-out: GI50
  GI50: 3.38 µM
SNB-19; [11]
  CC50: > 100 µM
SNB-19; read-out: TGI
  TGI: 19 µM
SNB-19; read-out: pGI50 (converted)
  GI50: 3.16 µM
SNB-19; [12]
  CC50: > 100 µM
SNB-19; read-out: pTGI (converted)
  TGI: 19.1 µM
NCI-H460
  growth at 100 µM: -48%
SF-295
  growth at 0.1 µM: 87%
